# Like-named read-outs stand apart in the source and are kept apart here.
# Assays:
# [1] = format: physicochemical
# Protocol: Reproducibility, Resistance, Recovery, and Storage Stability
# Azadirachtin solutions stores at 4° C. were considered stable.
# [2] = Azadirachtin solubility and dispersion capability in aqueous phase; format: physicochemical
# Text: This value represents an azadirachtin dispersion capability 13 times greater than its solubility. That is, it is possible to prepare a new formulation for applying Neem extracts and oil with high azadirachtin contents, whereas the surfactant content is kept low (Tween®80=0.5% m/v). It should be clear for those skilled in the art that this value represents a non-limiting example; greater dispersion capabilities are fairly possible according to the extract content used.
# [3] = cited from earlier work
structure (smiles),measurement,setting,value
"C/C=C(\C)C(=O)O[C@H]1C[C@@H](OC(C)=O)[C@@]2(C(=O)OC)CO[C@H]3[C@@H](O)[C@@](C)([C@]45O[C@@]4(C)[C@H]4C[C@@H]5O[C@@H]5OC=C[C@@]54O)[C@H]4[C@]1(CO[C@]4(O)C(=O)OC)[C@@H]32 [Azadirachtin, azadirachtin]",storage stability,[1],stable
same,Azadirachtin solubility,[2],26.0 mg 100 mL^−1
same,azadirachtin activity,[3]; after 4 hours of sunlight exposure,~60%
same,azadirachtin activity,[3]; after 15 hours of sunlight exposure,~50%

# — patent publication US9668473B2, “Process for obtaining biopolymeric nanoparticles containing Azadirachta indica A. Juss. (neem.) oil and extracts, biopolymeric nanoparticles, and powder microparticles” (priority 2013, dated 2017)
